From patent US20260363245A1, “HETEROCYCLIC COMPOUND AND HARMFUL ARTHROPOD CONTROL COMPOSITION CONTAINING SAME” (SUMITOMO CHEMICAL COMPANY, LIMITED, priority 2022, published 2026)

Experiments:
Format in all cases: in vivo
[1] = test system: common house mosquito (Culex pipiens pallens); test: Test Method 12: common house mosquito larvae in diluted solution; settings: 3.5 ppm; last instar larvae; 1 day
Method: Each test compound is formulated to a test formulation according to a similar method to that described in the Formulation Example 1, and water is added in preparing for a diluted solution containing a prescribed concentration of the test compound.
Into the diluted solution, 30 last instar larvae of common house mosquito (Culex pipiens pallens) are released, and after 1 day, the state of the house mosquito larvae is examined, and the mortality is calculated by the following equation.
(§1) Mortality(%)=(Number of dead insects/Number of tested insects)×100

[2] = test system: diamondback moth (Plutella xylostella); test: Test Method 4: diamondback moth, sprayed cabbage seedling, second-instar larvae; settings: 500 ppm, spray 20 mL/seedling, 5 days
Method: (§2) Each test compound is made to a formulation according to a similar method to that described in the Formulation Example 1, and thereto is added water containing 0.03 v/v % of Shindain (registered trademark) to prepare a diluted solution containing a prescribed concentration of the test compound.
(§3) Cabbage (Brassicae oleracea) seedling (on the developmental stage of the second to third true leaf) is planted in a container, and the diluted solutions are sprayed to the seedling at a ratio of 20 mL/seedling. Thereafter, the aerial part of the seedling is cut out and then is installed into a container in which a filter paper is placed at the bottom of the container. Five of second-instar larvae of diamondback moth (Plutella xylostella) are released into the container. After 5 days, the number of the surviving insects is counted, and the mortality of insects is calculated by the following equation.
(§4) Mortality(%)=(1−Number of surviving insects/5)×100

[3] = test system: cotton aphids (Aphis gossypii); test: Test Method 1: cotton aphid, foliar spray on cucumber seedling (Formulation Example 1); settings: 500 ppm; foliar spray 10 mL/seedling; 5 days after spraying
Method: as §2
(§5) Cucumber (Cucumis sativus) seedling (on the developmental stage of the second true leaf) is planted in a container and approximately 30 cotton aphids (Aphis gossypii) (all developmental stages of life) are released onto the leaves of the cucumber. After 1 day, the diluted solutions are sprayed to the seedling at a ratio of 10 mL/seedling. Further, after 5 days, the number of the surviving insects is examined and the controlling value is calculated by the following equation.
Controlling value(%)={1−(Cb×Tai)/(Cai×Tb)}×100
wherein the symbols in the formula represent the following descriptions. • Cb: Number of the test insects in untreated group; • Cai: Number of the surviving insects at the time of the investigation in untreated group; • Tb: Number of the test insects in treated group; • Tai: Number of the surviving insects at the time of the investigation in treated group;
Here the “untreated group” represents a group where the similar treatment procedure to that of the treated group except not using the test compound is done.

[4] = test system: cotton worm (Spodoptera litura); test: Test Method 3: cotton worm, sprayed cabbage seedling, second-instar larvae; settings: 500 ppm, spray 20 mL/seedling, 5 days
Method: as §2
as §3, with “cotton worm (Spodoptera litura)” for “diamondback moth (Plutella xylostella)”
as §4

[5] = test system: cotton aphids (Aphis gossypii); test: Test Method 11: cotton aphid, foliar spray on cucumber seedling (Formulation Example 5); settings: 200 ppm; foliar spray 10 mL/seedling; 5 days after spraying
Method: Each test compound is made to a formulation according to a similar method to that described in the Formulation Example 5, and thereto is added water containing 0.03 v/v % of Shindain (registered trademark) to prepare a diluted solution containing a prescribed concentration of the test compound.
as §5
Controlling value (%)={1−(Cb×Tai)/(Cai×)}×100
wherein the symbols in the formula represent the following descriptions. • Cb: Number of the test insects in untreated group; • Cai: Number of the surviving insects at the time of the investigation in untreated group; • Tb: Number of the test insects in treated group; • Tai: Number of the surviving insects at the time of the investigation in treated group; • Here the “untreated group” represents a group where the similar treatment procedure to that of the treated group except not using the test compound is done.

[6] = test system: Western corn rootworm (Diabrotica virgifera virgifera); test: Test Method 5: Western corn rootworm, immersed corn seedling; settings: 200 ppm; corn seedling immersed 30 seconds; second-instar larvae; 5 days
Method: Each 1 mg of the test compounds is dissolved in 50 μL of a mixed solution consisting of 5% of polyoxyethylene sorbitan mono-cocoate and 95% of acetone by volume ratio. Thereto is added water containing 0.03% by volume of Shindain (registered trademark) to prepare a diluted solution containing a prescribed concentration of the test compound.
A young seedling of corn (Zea mays) is immersed into the diluted solution for 30 seconds. Thereafter, two seedlings are installed in a plastic petri dish ([…]), and 10 of second-instar larvae of Western corn rootworm (Diabrotica virgifera virgifera) are released into the dish. After 5 days, the number of the dead insects is counted, and the mortality of insects is calculated by the following equation.
Mortality(%)=(Number of dead insects/10)×100

[7] = test system: housefly (Musca domestica); test: Test Method 8: housefly female adults, coated glass vial; settings: 40 mg/m^2 coated vial, 1 day
Method: An acetone solution which is adjusted to 800 ppm of each test compound is poured into a 20 mL glass vial, and the test compound is coated uniformly on inner face of the vial so as to 40 mg/m^2 of the test compound treated, and the vial is then dried.
5 housefly (Musca domestica) female adults are released into the treated vial, and the vial is then covered with lid. After the prescribed time, the state of the housefly is examined, and the mortality is calculated by the following equation.
as §1

Structure (SMILES)	mortality [1]	mortality [2] [%]	controlling value [3] [%]	mortality [4] [%]	controlling value [5] [%]	mortality [6] [%]	mortality [7] [%]
CCS(=O)(=O)c1cc(-c2cc(Cl)ccn2)cnc1N1CCn2nc(C(F)(F)F)cc2C1=O [compound 27]	greater than 90%	≥ 80	–	–	–	–	–
CCS(=O)(=O)c1cc(-c2ccc(F)cc2)cnc1N1CCn2nc(OC(F)F)cc2C1=O [compound 19]	greater than 90%	–	≥ 90	≥ 80	≥ 90	–	–
CCS(=O)(=O)c1cc(-c2ccc(F)cc2)cnc1N1CCn2nc(C(F)(F)F)cc2C1=O [compound 9]	–	≥ 80	≥ 90	≥ 80	≥ 90	≥ 80	–
CCS(=O)(=O)c1cc(-c2ccc(Cl)cc2)cnc1N1CCn2nc(OC(F)F)cc2C1=O [compound 16]	–	–	–	–	≥ 90	–	–
CCS(=O)(=O)c1cc(-c2cccc(C#N)n2)cnc1N1CCn2nc(C(F)(F)F)cc2C1=O [compound 23]	greater than 90%	–	≥ 90	–	–	–	–
CCS(=O)(=O)c1cc(-c2cc(Cl)cc(Cl)c2)cnc1N1CCn2nc(C(F)(F)F)cc2C1=O [compound 13]	greater than 90%	≥ 80	≥ 90	≥ 80	–	–	–
CCS(=O)(=O)c1cc(Br)cnc1N1CCn2nc(OC(F)F)cc2C1=O [compound 8]	–	≥ 80	≥ 90	–	≥ 90	–	–
CCS(=O)(=O)c1cc(Br)cnc1N1CCn2nc(C(F)(F)F)cc2C1=O [compound 7]	greater than 90%	–	≥ 90	–	≥ 90	≥ 80	–
CCS(=O)(=O)c1c(N2CCn3nc(Br)cc3C2=O)nc2ccc(I)cn12 [compound 46]	–	–	–	–	≥ 90	–	–
CCS(=O)(=O)c1c(N2CCn3nc(OC(F)F)cc3C2=O)nc2ccc(I)cn12 [compound 3]	greater than 90%	≥ 80	–	≥ 80	≥ 90	≥ 80	≥ 80
CCS(=O)(=O)c1cc(C2CC2)cnc1N1CCn2nc(OC(F)F)cc2C1=O [compound 6]	greater than 90%	≥ 80	≥ 90	≥ 80	≥ 90	≥ 80	–
CCS(=O)(=O)c1cc(-c2ccc(Cl)cc2)cnc1N1CCn2nc(C(F)(F)F)cc2C1=O [compound 11]	–	≥ 80	≥ 90	≥ 80	≥ 90	≥ 80	≥ 80
